Experiments:
wound skin tissues = test: Apoptosis by TUNEL in wound skin tissues of STZ mice; type: in vivo, mouse
Description: Diabetes mouse model and treatments. Nrf2^+/+ and Nrf2^-/- C57BL/6 mice were described previously (see, e.g., Jiang T, et al., Diabetes 59:850-860, 2010) and were housed and handled in accordance with the University of Arizona Institutional Animal Care policies. The STZ-induced diabetic model was previously described (see, e.g., Zheng H, et al., Diabetes 60:3055-3066, 2011) and only 8 week old male mice were included in this study. Briefly, three weeks after STZ injections, fasting glucose levels (FGL, 4 h fast) were measured using the AlphaTRAK system (Abbott Laboratory, North Chicago, Ill.) and mice with a FGL higher than or equal to 250 mg/dL were considered diabetic and included in the study (see, e.g., FIG. 2A and FIG. 3A for a detailed timeline). […] Gross wound closure was quantified by ImageJ software, and wound healing was expressed as the percentage of the original wound area that had healed. […] ROS were measured in HaCaT cells using DCF. […] Then, 48 h later, the cells were switched into fresh medium containing 10 μg/mL DCF, incubated 30 min, and fluorescence intensity was measured by flow cytometry. […] For this, 8000 HaCaT cells/well were seeded in LG or HG media, with or without an NRF2 activator, and cell growth was monitored for 72 h. […]

HaCaT cells = test: Cell growth (xCELLigence) of HaCaT cells; type: cell-based, human; conditions: 5 μmol/L SF or 20 μmol/L CA, up to 72 h
Description: Human immortalized keratinocytes HaCaT were obtained from the Arizona Cancer Center (see, e.g., Boukamp P, et al., J Cell Biol 106:761-771, 1988). Cells were grown in Dulbecco's modified Eagle's medium (DMEM) containing low glucose (LG, 5.5 mmol/L) and 10% fetal bovine serum (FBS) in an incubator at 37° C. with 5% CO2. For the experiments, the cells were starved in serum-free LG DMEM for 24 h, then either maintained in LG DMEM or switched to high glucose (HG, 25 mmol/L) DMEM for 2 days (see, e.g., Zheng H, et al., Diabetes 60:3055-3066, 2011; Lan C C, et al., Br J Dermatol 159:1103-1115, 2008). For the treatments, the cells were dosed with 5 μmol/L SF or 20 μmol/L CA.
siRNA transfections. […]
Reactive oxygen species (ROS) measurement, cell proliferation and apoptosis. ROS were measured in HaCaT cells using DCF. […] Then, 48 h later, the cells were switched into fresh medium containing 10 μg/mL DCF, incubated 30 min, and fluorescence intensity was measured by flow cytometry. The rate of cell proliferation was measured by two methods (see, e.g., Ren D, et al., Proc Natl Acad Sci USA 108:1433-1438, 2011): 1) detection of Ki67 using indirect immunofluorescence as described previously (see, e.g., Lau A, et al., Mol Cell Biol 30:3275-3285, 2010); and 2) using the xCELLigence system (Roche). […]

SMILES | apoptosis (TUNEL) (wound skin tissues) | inhibition of cell proliferation by HG (cell growth) (HaCaT cells)
O=CC=Cc1ccccc1 [CA, Cinnamaldehyde] | reduced apoptosis to a lesser extent than in Con | partly counteracted
C[S@@+]([O-])CCCCN=C=S [SF, L-sulforaphane] | reduced apoptosis to a lesser extent than in Con | partly counteracted

From patent US20180344680A1, “COMPOSITIONS AND METHODS FOR TREATMENT, AMELIORATION, AND PREVENTION OF DIABETES-RELATED SKIN ULCERS” (THE ARIZONA BOARD OF REGENTS ON BEHALF OF THE UNIVERSITY OF …, priority 2015, published 2018)
